Data on five compounds can be found in US6632602B1, “Plant sugar sensors and uses thereof” (The General Hospital Corporation, priority 1996, dated 2003).

The test system of data set [1] is Arabidopsis seedlings. Put plainly: Sugar sensitivity bioassay of light-grown seedlings on 6% glucose or 0.8 mM 2-dGlc plates. In kind it is in vivo. Conditions: control plants, constant light; 6% glucose or low concentration (0.8 mM) 2-dGlc. The text has this: To test the hypothesis that AtHXKs act as sugar sensors in intact plants, transgenic plant models were established by introducing sense and antisense genes to alter AtHXK levels. Wild-type (Bensheim) Arabidopsis plants were transformed with binary vectors carrying gene fusions with the CaMV35S promoter and sense AtHXK1 (sense-AtHXK1), sense AtHXK2 (sense-AtHXK2), antisense AtHXK1 (anti-AtHXK1), or antisense AtHXK2 (anti-AtHXK2) using a standard Agrobacterium-mediated root transformation protocol (Czako et al., Mol. Gen. Genet. 235, 33 (1992)). The presence of a transgene was determined by NPTII expression and resultant kanamycin resistance, and by DNA blot analysis. Several transgenic lines of the T3 generation homozygous for the sense or antisense transgenes were selected for further analyses.
Sugar sensitivity of transgenic plants was examined by performing bioassays using 6% glucose or 0.8 mM 2-deoxyglucose (2-dGlc), a nonmetabolizable glucose analog. […]
The scored phenotypes shown in Table 1 were determined based on the examination of light-grown, 7-day-old seedlings which were germinated on 1/2 MS plates containing either 6% glucose or 0.8 mM of 2-dGlc. Sugar insensitive (Ins), hypersensitive (Hyp), and ambiguous (A) phenotypes were scored and tabulated.

Data set [2] concerns yeast hxk1/hxk2 double mutant (DBY2219). Put plainly: Functional complementation of yeast hxk1/hxk2 double mutant on fructose. Conditions: for Complementation of yeast double mutant, growth on fructose as sole carbon source: cDNA transformed into DBY2219. The class given is cell-based, Saccharomyces cerevisiae. The text has this: To elucidate the role of HXK as a sugar sensor, the Arabidopsis HXK genes were cloned by functional complementation using a yeast Saccharomyces cerevisiae hxk1/hxk2 double mutant (designated DBY2219), a strain which lacked HXK activity (Ma and Botstein, Mol. Cell. Biol. 6, 4046 (1986)). Using this approach, we identified two cDNAs, designated AtHXK1 (FIG. 1F; SEQ ID NO: 3, GenBank accession no. U28214) and AtHXK2 (FIG. 1G; SEQ ID NO: 4, GenBank accession no. U28215). These cDNAs, which were 2.0 and 1.9 kb in length respectively, were both found reproducibly to complement the yeast double mutant and to allow its growth on a selection plate containing fructose as the sole carbon source. […] In contrast, mutants transformed with the plasmid vector pFL61 alone were incapable of growth on the same selection media (FIG. 1A) (Minet et al., Plant J. 2, 417 (1992)).

The test system is the same in data set [3]. Put plainly: Yeast glucose repression assay on 2-dGlc/raffinose plate. In kind it is cell-based, Saccharomyces cerevisiae. Conditions: 2% raffinose, 2-deoxyglucose (0.02%). An excerpt: To confirm this hypothesis, we sought to increase the expression of a heterologous HXK that would provide excess catalytic activity for sugar metabolism, but no regulatory function. The yeast HXK2 (YHXK2) has been proposed to have catalytic and regulatory functions, and appeared to be a good candidate for this experiment (Entian, Mol. Gen. Genet. 178, 633 (1980); Entian and Frshlich, J. Bacteriol. 158, 29 (1984); Entian et al., Mol. Cell. Biol. 5, 3035 (1985)). We first determined whether the putative regulatory functions of the YHXK2 and AtHXK were interchangeable by examining the effect of increasing the expression of AtHXK on glucose repression in a yeast hxk1/hxk2 double mutant (DBY2219). The assay was based on the YHXK2-mediated growth inhibition (i.e., glucose repression) of wild-type yeast cells on a 2-dGlc/raffinose plate. The glucose repression assay was performed using a YP plate with 2% raffinose as the carbon source in the presence of 2-deoxyglucose (0.02%) as described by Ma et al. (Mol. Cell. Biol. 9, 5643 (1989)). The glucose analog, 2-dGlc, mimics glucose by inducing strong repression of the invertase gene (SUC2), but is itself unavailable for use as a carbon source.

For data set [4], the system named is Arabidopsis seedlings. Put plainly: Osmotic control experiments on 6% mannitol or 6% 3-MeGlc plates. The class given is in vivo. Conditions: plated on 6% of the substance. An excerpt: To rule out the possibility that the difference in sugar sensing between transgenic and control plants was due to an osmotic effect, mannitol and 3-O-methylglucose (3-MeGlc) were used in control experiments.

As to `O=CC[C@@H](O)[C@H](O)[C@H](O)CO` [2-dGlc, 2-deoxyglucose], the “Effect of sugar on control (wild-type) seedling development” value in the data set on Arabidopsis seedlings [1] is “greening of cotyledons was found to be inhibited”.

Turning to “AtHXK2: Arabidopsis hexokinase cDNA, SEQ ID NO: 4, GenBank accession no. U28215”, in data set [2], the “Complementation of yeast double mutant, growth on fructose as sole carbon source” value is “complement”. Besides, the “Glucose repression in hxk1/hxk2 strain” value in data set [3] is reported as “did not restore glucose repression”.

In the case of “AtHXK1: Arabidopsis hexokinase cDNA, SEQ ID NO: 3, GenBank accession no. U28214”, the “Complementation of yeast double mutant, growth on fructose as sole carbon source” value in data set [2] is given as “complement”. Besides, in data set [2] (data not shown), the “Catalytic activity in yeast transformation experiment” value is “higher catalytic activity than AtHXK2”. For the same compound, the “Glucose repression in hxk1/hxk2 strain” value in data set [3] is on record as “did not restore glucose repression”.

Regarding `OC[C@@H](O)[C@@H](O)[C@H](O)[C@H](O)CO` [mannitol], in the data set on Arabidopsis seedlings [4], the “Difference between control and transgenic plants” value is listed as “No apparent difference”.

In the case of `CO[C@@H]([C@H](O)[C@H](O)CO)[C@@H](O)C=O` [3-MeGlc, 3-O-methylglucose], in the data set with Arabidopsis seedlings [4], the “Difference between control and transgenic plants” value was “No apparent difference”.
